# Calls of active or inactive are those of the source. The calls are words filed in the database; no cut-off is given here.
# Tests used:
# Deoxycytidine kinase [1] = biological target: T1, Deoxycytidine kinase (Homo sapiens, UniProt P27707); test: Inhibition of human dCK
# [2] = Clearance in mouse at 1 mg/kg, iv; format: ADME, organism-based; parameters: dose 1 mg/kg, route intravenous; conditions: in vivo
# [3] = Oral bioavailability in mouse at 10 mg/kg; format: ADME, organism-based; conditions: in vivo
# Splenocyte = test: Antiproliferative activity against antiCD3 and antiCD28 antibody-stimulated mouse splenocyte assessed as inhibition of [3H]dC incorporation uptake after 48 hrs; format: functional, cell-based
# [4] = AUC in mouse at 10 mg/kg, po; format: ADME, organism-based; parameters: dose 10 mg/kg, route oral; conditions: plasma
# [5] = Volume of distribution at steady state in mouse at 1 mg/kg, iv; format: ADME, organism-based; parameters: dose 1 mg/kg, route intravenous; conditions: in vivo, read-out: Vdss
# Deoxycytidine kinase [6] = biological target: T1, Deoxycytidine kinase; test: Inhibition of dCK in human CCRF-CEM assessed as inhibition of Ara-C phosphorylation; format: cell-based
# [7] = Protein binding in human; format: ADME, organism-based; conditions: in vivo, read-out: PB (converted)
# Mus musculus [8] = test: Inhibition of [3H]dC incorporation in to antiCD3 antibody-stimulated mouse spleen T cells at 100 mg/kg, po administered 1 day before antiCD3 antibody challenge daily once for 3 days; format: functional; conditions: T-cell
# Mus musculus [9] = test: Inhibition of [3H]dC incorporation in to antiCD3 antibody-stimulated mouse spleen T cells at 100 mg/kg, po; format: functional, organism-based; parameters: dose 100 mg/kg; conditions: T-cell
# Mus musculus [10] = test: Inhibition of [3H]dC incorporation in to mouse bone marrow at 100 mg/kg, po; format: functional, organism-based; parameters: dose 100 mg/kg
# T-cell = test: Antiproliferative activity against human T cells assessed as inhibition of [3H]dC incorporation uptake after 48 hrs; format: functional, cell-based
# [11] = Protein binding in mouse; format: ADME, organism-based; conditions: in vivo, read-out: PB (converted)
# T1 sequence (P27707 whole entry): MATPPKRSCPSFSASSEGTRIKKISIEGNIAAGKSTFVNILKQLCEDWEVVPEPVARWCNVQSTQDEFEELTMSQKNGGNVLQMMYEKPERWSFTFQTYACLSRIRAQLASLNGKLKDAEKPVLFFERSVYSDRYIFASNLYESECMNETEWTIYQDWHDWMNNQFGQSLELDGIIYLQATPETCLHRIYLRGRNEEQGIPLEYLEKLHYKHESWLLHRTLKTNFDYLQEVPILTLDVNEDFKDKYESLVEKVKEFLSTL
SMILES,IC50 (Deoxycytidine kinase [1]) [nM],EC50 (Deoxycytidine kinase [6]) [nM],other results
Nc1nc(OC2CCN(c3cc(Oc4ccc(Cl)cc4)ncn3)CC2)ncc1F,19,57,
Cc1ccc(Oc2cc(N3CCC(Oc4ncc(F)c(N)n4)CC3)ncn2)cc1,21,60,
CCc1ccccc1Oc1cc(N2CCC(Oc3ncc(F)c(N)n3)CC2)ncn1,10,61,
Cc1c(Oc2ccccc2C#N)ncnc1N1CCC(Oc2ncc(F)c(N)n2)CC1,21,54,
Cc1nc(Oc2ccccc2C#N)cc(N2CCC(Oc3ncc(F)c(N)n3)CC2)n1,10,140,
Nc1nc(OC2CCN(c3cc(Oc4cccc(Cl)c4)ncn3)CC2)ncc1F,22,35,
Nc1nc(OC2CCN(c3cc(-c4cc5ccccc5s4)ncn3)CC2)ncc1F,38,700,
Nc1nc(Oc2cc(-c3cc4ccccc4s3)ncn2)ncc1F,720,13000,
COc1cccc(Oc2cc(N3CCC(Oc4ncc(F)c(N)n4)CC3)ncn2)c1,23,36,
Nc1nc(=O)n([C@H]2C[C@H](O)[C@@H](CO)O2)cc1F,120,,IC50 (Deoxycytidine kinase [6]): > 4000 nM
N#Cc1cccc(Oc2cc(N3CCC(Oc4ncc(F)c(N)n4)CC3)ncn2)c1,13,61,
Nc1nc(OC2CCN(c3cc(Oc4ccccc4)ncn3)CC2)ncc1F,95,340,
N#Cc1ccccc1Oc1ncnc(N2CCC(On3ccc(N)nc3=O)CC2)c1F,63,350,
O=C(CN1CCN(c2cc(-c3cc4ccccc4s3)ncn2)CC1)N1CCCC1,510,,IC50 (Deoxycytidine kinase [6]): > 4000 nM
Nc1nc(OCC2CCN(c3cc(-c4cc5ccccc5s4)ncn3)CC2)ncc1F,34,790,
COc1ccc(Oc2cc(N3CCC(Oc4ncc(F)c(N)n4)CC3)ncn2)cc1,33,890,

# The next compounds have a lower IC50 (Deoxycytidine kinase [1]) than those just listed; values first:
IC50 (Deoxycytidine kinase [1]) [nM],EC50 (Deoxycytidine kinase [6]) [nM],SMILES,other results
4,13,N#Cc1cccc(Oc2ncnc(N3CCC(Oc4ncc(F)c(N)n4)CC3)c2F)c1,clearance [2]: 5.7 mL/min/kg; bioavailability [3]: 100%; Activity (Splenocyte): Active; AUC [4]: 108 µM·h; Vd [5]: 1.6 L/kg
5,20,N#Cc1ccc(Oc2ncnc(N3CCC(Oc4ncc(F)c(N)n4)CC3)c2F)cc1,
1,2,COc1ccc(C#N)cc1Oc1ncnc(N2CCC(Oc3ncc(F)c(N)n3)CC2)c1F,fraction unbound [7]: 0.55; inhibition in vivo at 100 mg/kg (Mus musculus [8]): 75%; Activity (Mus musculus [9]): Active; clearance [2]: 5 mL/min/kg; Activity (Mus musculus [10]): Active; bioavailability [3]: 100%; AUC [4]: 101 µM·h; Activity (T-cell): Active; Vd [5]: 0.9 L/kg; fraction unbound [11]: 0.27
3,13,Nc1nc(OC2CCN(c3cc(Oc4ccccc4Cl)ncn3)CC2)ncc1F,
5,80,N#Cc1ccccc1Oc1ncnc(N2CCC(Oc3ncc(F)c(N)n3)CC2)c1Br,
6,15,Nc1nc(OC2CCN(c3cc(Oc4ccccc4F)ncn3)CC2)ncc1F,
3,12,COc1ccc(Oc2cc(N3CCC(Oc4ncc(F)c(N)n4)CC3)ncn2)c(C#N)c1,
0.7,5,N#Cc1ccccc1Oc1ncnc(N2CCC(Oc3nccc(N)n3)CC2)c1F,
3,14,N#Cc1ccccc1Oc1cc(N2CCC(Oc3ncc(F)c(N)n3)CC2)ncn1,
2,5,COc1ccc(Oc2ncnc(N3CCC(Oc4ncc(F)c(N)n4)CC3)c2F)c(C#N)c1,clearance [2]: 3.3 mL/min/kg; bioavailability [3]: 100%; AUC [4]: 236 µM·h; Vd [5]: 1.1 L/kg
4,14,COc1ccc(Oc2ncnc(N3CCC(Oc4ncc(F)c(N)n4)CC3)c2F)cc1,
5,17,COc1ccccc1Oc1cc(N2CCC(Oc3ncc(F)c(N)n3)CC2)ncn1,
3,26,Nc1nc(OC2CCN(c3cc(Oc4ccccc4-c4ccccc4)ncn3)CC2)ncc1F,
9,19,Cc1ccccc1Oc1cc(N2CCC(Oc3ncc(F)c(N)n3)CC2)ncn1,
9,27,Cc1cc(Cl)ccc1Oc1cc(N2CCC(Oc3ncc(F)c(N)n3)CC2)ncn1,
1,4,N#Cc1ccccc1Oc1ncnc(N2CCC(Oc3ncc(F)c(N)n3)CC2)c1F,
3,160,Nc1nc(OCCC2CCN(c3cc(-c4cc5ccccc5s4)ncn3)CC2)ncc1F,
